According to US20070254019A1, “METHOD FOR TREATING BRAIN CANCER” (priority 2006, published 2007):

Assays:
[1] = Plasma, tumor and tissue pharmacokinetic disposition of CKD-602 after single IV administration in mice bearing A375 tumors; assay type: in vivo
From the text: The objectives of the study were to evaluate the plasma, tumor, and tissue disposition of CKD-602 after a single intravenous (IV) administration of liposomes entrapped with CKD-602 and having an outer surface coating of methoxypolyethylene glycol (S-CKD602) and non-liposomal CKD-602 in female SCID mice bearing A375 human melanoma xenografts. New sample processing methods were developed to evaluate the encapsulated and released CKD-602 in plasma after administration of S-CKD602. Microdialysis methodology was used to evaluate the release of CKD-602 from S-CKD602 in tumor ECF.
Mice. All mice were handled in accordance with the Guide to the Care and Use of Laboratory Animals (National Research Council, 1996), and studies were approved by the Institutional Animal Care and Use Committee at the University of Pittsburgh Medical Center. Mice (female C.B-17 SCID,4-6 weeks of age, and specific pathogen free), were obtained from Taconic (Hudson, N.Y.), and were allowed to acclimate to the animal facilities at the University of Pittsburgh for 1 week prior to initiation of study. Mice were housed in microisolator cages and allowed ISDPRO autoclavable rodent chow (PMI Nutrition International, Inc., Brentwood, Mo.) and mice received water ad libitum. Body weights and tumor size were measured twice weekly and clinical observations were made twice daily.
Tumor Lines. A375 human melanoma xenografts were obtained from the DCTD Tumor Repository (Fredrick, Md.) and were mouse antigen production test-negative. A375 tumors were expanded in culture and injected (1×10^7 cells/mouse) subcutaneously into passage mice. The A375 tumors were harvested when they were 1 to 2 g and were implanted as approximately 25-mg fragments subcutaneously on the fight flank of SCID mice by aseptic techniques. […] Pharmacokinetic and microdialysis studies were performed when the tumors were approximately 1000 to 1500 mm^3 (1 to 1.5 g) in size.
Formulation and Administration. S-CKD602 is a pegylated liposomal formulation of CKD-602. The clinical formulation of S-CKD602 was used in this study (Alza Corp., Mountain View Calif.) (Zamboni et al., Final results of a phase I and pharmacokinetic study of STEALTH liposomal CKD-602 (S-CKD602) in subjects with advanced solid tumors. Proceedings of ASCO […];82s:2006). Approximately 80% of the lipid in S-CKD602 liposome is fully hydrogenated soy phosphatidylcholine and cholesterol. In addition, methoxypolyethylene glycol is covalently bound to phosphatidylethanolamine and a component of the lipid bilayer. The mean particle size of the S-CKD602 was approximately 110 nm. CKD-602 is encapsulated in the core of the liposome with an encapsulation efficiency of greater than 90%. The drug-to-lipid ratio of S-CKD602 is approximately […] CKD-602 per milligram of lipid. In the S-CKD602 formulation, the CKD-602 concentration was 0.1 mg/mL. The doses of S-CKD602 refer to actual doses of CKD-602. S-CKD602 was administered at 1 mg/kg IV push via a tail vein over approximately 1 min. This dose is one-half the maximum tolerated dose (MTD) in mice. The dose of S-CKD602 administered was based on the maximum volume of drug allowed to be administered IV by the study's IACUC.
Non-liposomal CKD602 was administered at 30 mg/kg IV push via the tail vein. This dose is approximately the MTD for a single dose of non-liposomal CKD-602 in mice. Non-liposomal CKD-602 was prepared at 3 mg/mL in 270 mM mannitol and 0.4 mM tartaric acid in a 5% dextrose solution at pH 3.6. The vehicle control for S-CKD602 and non-liposomal CKD-602 was 0.9% NaCI and 270 mM mannitol and 0.4 mM tartaric acid in a 5% dextrose solution at pH 3.6, respectively.
Pharmacokinetic Studies. Due to limited sample volume, the pharmacokinetic and microdialysis studies were performed in separate groups of mice. Pharmacokinetic studies of S-CKD602 were performed after administration of vehicle, and at 5 min, 0.25, 0.5, 1, 2, 4, 7, 16, 24, 48, and 72 h after administration. […]

[2] = mice; IV push
[3] = Microdialysis study of tumor ECF disposition of CKD-602
Experimental: At all other microdialysis sample intervals, probe recovery was estimated using camptothecin as a tracer agent.
The HPLC system consisted of a Finnigan Specta Systems AS3000 autosampler and P4000 quarternary pump (Thermo Finnigan, Waltham, Mass.) with a Phenomenex Synergi Hydro-RP 80A (4 um, 100×2 mm) analytical column (Phenomenex, Torrance, Calif.). The isocratic mobile phase consisted of 0.1% formic acid in methanol:water (35:85, v/v) and was pumped at 0.2 mL/min. Injection volume was 10 pL and the run time was 10 min. […] The insert probe temperature was set at 400° C. with 3 kV ion spray voltage and 20 V orifice voltage. Nitrogen gas flow was fixed at 75 p.s.i. at the tank head unit. The system was operated with ThermoFinnigan Xcaliber software.

[4] = brain, single IV dose (S-CKD602 1 mg/kg; non-liposomal 30 mg/kg)
[5] = fat, single IV dose (S-CKD602 1 mg/kg; non-liposomal 30 mg/kg)
[6] = kidney, single IV dose (S-CKD602 1 mg/kg; non-liposomal 30 mg/kg)
[7] = liver, single IV dose (S-CKD602 1 mg/kg; non-liposomal 30 mg/kg)
[8] = muscle, single IV dose (S-CKD602 1 mg/kg; non-liposomal 30 mg/kg)
[9] = plasma, single IV dose (S-CKD602 1 mg/kg; non-liposomal 30 mg/kg)
[10] = spleen, single IV dose (S-CKD602 1 mg/kg; non-liposomal 30 mg/kg)
[11] = tumor, single IV dose (S-CKD602 1 mg/kg; non-liposomal 30 mg/kg)
[12] = tumor ECF by microdialysis, S-CKD602 (1 mg/kg), Non-Liposomal CKD-602 (30 mg/kg) IV

In the case of `CC[C@@]1(O)C(=O)OCc2c1cc1n(c2=O)Cc2c-1nc1ccccc1c2CCNC(C)C` [Non-Liposomal CKD-602], the “AUC, sum total CKD-602, Brain” value [1, 4] is reported as 849 ng·h/mL, the “Cmax, sum total CKD-602, Brain” value [1, 4] is reported as 572 ng/mL and the “Tlast, sum total CKD-602, Brain” value [1, 4] is reported as 7 h. The “Tmax, sum total CKD-602, Brain” value [1, 4] was 4.8 min, the “Cmax, sum total CKD-602, Fat” value [1, 5] was 7,321 ng/mL and the “Tlast, sum total CKD-602, Fat” value [1, 5] was 24 h. For the same compound, the “Tmax, sum total CKD-602, Fat” value [1, 5] was 15 min, the “AUC, sum total CKD-602, Kidney” value [1, 6] was 56,267 ng/mL · h and the “Cmax, sum total CKD-602, Kidney” value [1, 6] was 68,497 ng/mL. The “Tlast, sum total CKD-602, Kidney” value [1, 6] was 24 h, the “Tmax, sum total CKD-602, Kidney” value [1, 6] was 4.8 min and the “AUC, sum total CKD-602, Liver” value [1, 7] was 68,620 ng/mL · h. For the same compound, the “Cmax, sum total CKD-602, Liver” value [1, 7] was 69,000 ng/mL, the “Tlast, sum total CKD-602, Liver” value [1, 7] was 16 h and the “Tmax, sum total CKD-602, Liver” value [1, 7] was 240 min. The “Cmax, sum total CKD-602, Muscle” value [1, 8] was 12,383 ng/mL, the “Tlast, sum total CKD-602, Muscle” value [1, 8] was 24 h and the “Tmax, sum total CKD-602, Muscle” value [1, 8] was 4.8 min. For the same compound, the “overall distribution in muscle compared with fat” value ([1]; non-liposomal CKD-602 30 mg/kg IV, muscle vs fat) was 3 fold, the “AUC, sum total CKD-602, Fat” value ([1]; peritoneal cavity fat, single IV dose (S-CKD602 1 mg/kg; non-liposomal 30 mg/kg)) was 8,280 ng/mL · h and the “Plasma Sum Total AUC(0-inf)” value ([1]; plasma, S-CKD602 (1 mg/kg), Non-Liposomal CKD-602 (30 mg/kg) IV) was 9,117 ng/mL · h. The “Tlast, sum total CKD-602, Plasma” value ([1]; plasma, last detectable time, single IV dose (S-CKD602 1 mg/kg; non-liposomal 30 mg/kg)) was 16 h, the “Cmax, sum total CKD-602, Plasma” value [1, 9] was 6,959 ng/mL and the “Tmax, sum total CKD-602, Plasma” value [1, 9] was 4.8 min. The “Tmax, sum total CKD-602, Plasma” value ([1]; plasma, single IV dose (S-CKD602 1 mg/kg; non-liposomal 30 mg/kg), listed as non-liposomal CKD-602) was 4.98 min, the “AUC, sum total CKD-602, Plasma” value ([1]; plasma, single IV dose (S-CKD602 1 mg/kg; non-liposomal CKD-602 30 mg/kg)) was 9,117 ng/mL · h and the “AUC, sum total CKD-602, Muscle” value ([1]; skeletal muscle, single IV dose (S-CKD602 1 mg/kg; non-liposomal 30 mg/kg)) was 24,485 ng/mL · h. For the same compound, the “AUC, sum total CKD-602, Spleen” value [1, 10] was 23,124 ng/mL · h, the “Cmax, sum total CKD-602, Spleen” value [1, 10] was 14,724 ng/mL and the “Tlast, sum total CKD-602, Spleen” value [1, 10] was 24 h. For the same compound, the “Tmax, sum total CKD-602, Spleen” value [1, 10] was 15 min, the “tissues with the highest exposures of CKD-602” value ([1]; sum total CKD-602 in tissues) was “liver and kidney” and the “Tumor Sum Total(0-inf)” value ([1]; tumor homogenate AUC, S-CKD602 (1 mg/kg), Non-Liposomal CKD-602 (30 mg/kg) IV) was 11,661 ng/mL · h. The “Cmax, sum total CKD-602, Tumor” value [1, 11] was 3,688 ng/mL, the “Tlast, sum total CKD-602, Tumor” value [1, 11] was 24 h and the “Tmax, sum total CKD-602, Tumor” value [1, 11] was 30 min. For the same compound, the “MTD for a single dose” value [2] was roughly 30 mg/kg, the “CKD-602 in tumor ECF detectable until” value ([3]; detectable from 10 min, microdialysis) was 19.25 h and the “variation of CKD-602 concentration in tumor ECF at individual time points” value ([3]; during the collection intervals) was 4- to 5 fold. The “Time >1 ng/mL In Tumor ECF” value [3, 12] was “˜20 h” and the “Tumor ECF AUC(0-inf)” value [3, 12] was 639 ng·h/mL.
